{
  "source": "paper PMC5444710",
  "about": "“Enhancement of radiosensitivity by the novel anticancer quinolone derivative vosaroxin in preclinical glioblastoma models” (Oncotarget, 2017)",
  "key": {"[1]": {"tested_on": "T98G xenografts", "assay": "Subcutaneous xenograft model: tumor weight and time to progression", "assay_type": "in vivo, female CD1-nu/nu mice", "conditions": "T98G xenografts; day 35; VSR 10 mg/kg q 5 d for 5 wk IV; TMZ 16 mg/kg 5 consecutive days; RT single 4 Gy", "method": "(§1) Female CD1-nu/nu mice, at 6 weeks of age, were purchased from Charles River (Milan, Italy) under the guidelines established by our institution (University of L’Aquila, Medical School and Science and Technology School Board Regulations, complying with Italian government regulation n.116, January 27, 1992, for the use of laboratory animals). All mice received subcutaneous flank injections (2 each) of 1 × 10^6 U251, U87MG, and T98G cells representing models for MGMT-negative and MGMT-positive cells. Tumor growth was assessed biweekly by measuring tumor diameters with a Vernier caliper (length × width). Tumor weight was calculated according to the formula tumor weight (mg) = tumor volume (mm^3) = d2 × D/2, where d and D are the shortest and longest diameters, respectively. The effects of the treatments were assessed as previously described. At about 10 days after the tumor injection, 30 mice with tumor volumes of 0.5–0.8 cm^3 were randomly divided into 6 groups (5 mice per group with 2 tumors each): (1) control (vehicle); (2) vosaroxin (10 mg/kg every 5 days for 5 weeks intravenous [IV] injection into tail vein; (3) radiotherapy (RT; 4 Gy delivered in a single fraction); (4) vosaroxin in combination with RT; (5) temozolomide (16 mg/kg 5 consecutive days) and (6) temozolomide in combination with RT. Anesthetized tumor-bearing mice received focal irradiation. Irradiation was delivered using an x-ray linear accelerator at a dose rate of 200 cGy/min at room temperature. All mice were shielded with a specially designed lead apparatus to allow irradiation to the right hind limb. At the end of the study (35 days after the start of treatments), animals were sacrificed by carbon dioxide inhalation and tumors were then removed surgically. Half of the tumor was directly frozen in liquid nitrogen for protein analysis and the other half was fixed in paraformaldehyde overnight for immunohistochemical analyses.\n(§2) The following parameters were used to quantify the antitumor effects of different treatments as previously described: tumor volume, measured throughout the experiment; tumor weight, measured at the end of the experiment; tumor progression, defined as an increase of greater than 50% of tumor volume with respect to baseline; and time to progression (TTP), defined as the time until tumor progression was observed from baseline. Tumor size was measured with calipers and the TTP of a single tumor was calculated. TTP data were used to generate Kaplan-Meier curves for progression. This method of analysis was described previously, and may reduce both inter-subject variability resulting from differences in engraftment efficacy as well as intra-subject variability in response.\n(§3) In vivo drug combination studies were evaluated using CalcuSyn. For CI calculations of dual administration, the values of % cell kill (%CK) for a fixed tumor volume were determined by the log CK (LCK). LCK was calculated as LCK = (T − C) / (3.32 × Td), where Td represented the mean control group doubling time required to reach a fixed tumor volume, expressed in days. T and C were the mean times in days required to reach the same fixed tumor volume in the treated group and the control group, respectively. CK was calculated as %CK = [1 − (1 − 10LCK)] × 100. Tumor growth delay (TGD) was calculated as %TGD = [(T − C) / C] × 100, where T and C were the same values as those reported by Bruzzese et al.."}, "[2]": {"tested_on": "U251 xenografts", "assay": "Subcutaneous xenograft model: tumor weight and time to progression", "assay_type": "in vivo, female CD1-nu/nu mice", "conditions": "U251 xenografts; day 35; VSR 10 mg/kg q 5 d for 5 wk IV; TMZ 16 mg/kg 5 consecutive days; RT single 4 Gy", "method": "as §1, §2, §3"}, "[3]": {"tested_on": "U87MG xenografts", "assay": "Subcutaneous xenograft model: tumor weight and time to progression", "assay_type": "in vivo, female CD1-nu/nu mice", "conditions": "U87MG xenografts; day 35; VSR 10 mg/kg q 5 d for 5 wk IV; TMZ 16 mg/kg 5 consecutive days; RT single 4 Gy", "method": "as §1, §2, §3"}, "[4]": {"tested_on": "luciferase-transfected U251 cells", "assay": "Orthotopic intra-brain model (DFS, OS)"}, "[5]": {"tested_on": "U87MG, U251, and T98G cells", "assay": "Autophagy: acidic vesicular organelle (AVO) staining", "assay_type": "cell-based, human", "conditions": "RT 4 Gy, 24 hours", "excerpt": "As a marker of autophagy we evaluated the presence of AVOs after staining of cell cultures with LysoTracker® Red DND-99 kit (Life Technologies Italia, Monza, Italy) according to the manufacturer’s instructions. The intensity of the red fluorescence is proportional to the degree of acidity. The percentage of autophagic cells was quantified with the Tali® Image-Based Cytometer (Life Technologies) measuring fluorescence emission at 590 nm with fluorescence excitation at 577 nm. The results were expressed as the percentage of cell AVOs stained in controls and in treated cultures."}},
  "note": "Where a SMILES comes first, the peptide text is derived from it. The star is where a group is joined. Cbz = O=C(OCc1ccccc1)*; CH2F = FC*",
  "data": [
    {"smiles": "Cn1nnc2c(C(N)=O)ncn2c1=O", "note": "[temozolomide]", "values": [
      {"measurement": "final tumor weight reduction compared with vehicle controls", "setting": "[1]", "value": 25, "unit": "%"},
      {"measurement": "final tumor weight reduction compared with vehicle controls", "setting": "[2]", "value": 54, "unit": "%"},
      {"measurement": "final tumor weight reduction compared with vehicle controls", "setting": "[3]", "value": 53, "unit": "%"},
      {"measurement": "Disease-free Survival HR (95% CI)", "setting": "[4]; TMZ vs VSR", "value": "2.0 (0.9–5.5)"},
      {"measurement": "Overall Survival HR (95% CI)", "setting": "[4]; TMZ vs VSR", "value": "3.0 (1.0–8.8)"},
      {"measurement": "mean time of recurrence (DFS) ± SE", "setting": "[4]; orthotopic U251-luciferase, treated for 35 days starting 5 days after cell injection", "value": "68.3 ± 5.4", "unit": "days"}
    ]},
    {"smiles": "Cn1cnc(N)c2ncnc1-2", "note": "[3-methyladenine]", "values": [
      {"measurement": "RT-induced AVO staining", "setting": "[5]; 5 μM", "value": "reduced"}
    ]},
    {"smiles": "COC(=O)C[C@H](NC(=O)[C@H](C)NC(=O)[C@@H](NC(=O)OCc1ccccc1)C(C)C)C(=O)CF", "note": "[z-Val-Ala-Asp(Ome)-fluoromethyl ketone] (Cbz-Val-Ala-Asp(OMe)-CH2F)", "values": [
      {"measurement": "RT-induced AVO staining", "setting": "[5]; 10 μM", "value": "further increased"}
    ]}
  ]
}
